{"source": "patent US20210154170A1", "about": "“METHODS OF TREATING NEUROPATHIC PAIN” (Biogen MA Inc., priority 2018, published 2021)", "key": {"[1]": {"system": "healthy participants", "test": "Phase 1 cross-over study, ambulatory blood pressure monitoring (ABPM)", "assay_type": "in vivo, human", "conditions": "one-sided 95% CI excluding effect ≥5 mmHg"}, "[2]": {"system": "trigeminal neuralgia", "conditions": "TN, 150 mg tid; cited from earlier work"}, "[3]": {"system": "rat model of inflammation (mechanical hypersensitivity)", "assay_type": "in vivo", "procedure": "For all doses, the C Trough is higher than efficacious doses in animal model of inflammation. […] FCA1, an oral dose of 1 mg/kg was the minimal effective dose in this model. TGN (trigeminal neuralgia), PLSR (painful lumbosacral radiculopathy).\nIn this model, inflammation was induced by intraplantar injection of Freud Complete Adjuvant.\nMechanical hypersensitivity was then assessed using weight bearing."}, "[4]": {"system": "human hepatocytes", "test": "Metabolism in human hepatocytes", "assay_type": "in vitro ADME"}, "[5]": {"test": "Phase 1 ABPM study, pharmacokinetics", "assay_type": "in vivo, human", "procedure": "This was a Phase 1, randomized, double-blind, placebo-controlled, repeat dose, 2-period cross-over study to investigate the effect of BIIB074 300-400 mg bid on ambulatory blood pressure (ABP) in healthy participants (FIG. 2). The study comprised: screening (to occur a maximum of 30 days before the first baseline assessment); two 36-day treatment periods, each preceded by a baseline visit and separated by a 7-day washout (to minimize possible carry over effects); and a follow-up period of 7-14 days after last dose. Prior to this study, no females had received BIIB074; for this reason, a single dose BIIB074 session at the dose level of 400 mg was also conducted in female participants one week prior to the period 1 baseline visit. Following this session, some participants were predicted to exceed the predefined PK limit (area under the plasma concentration-time curve [AUC] 97 μg·h/mL) when receiving 400 mg bid at steady state. Therefore, in the subsequent phases of the study, all female participants received a lower dose of 300 mg bid (males received 400 mg bid).\nThe primary endpoint was change in 24 h average SBP and DBP from baseline to day 36 as determined by ABPM. Secondary outcome measures included: change in 24 h average SBP and DBP from baseline to days 4 and 15; change in average SBP and DBP within a 12 h dosing interval from baseline to days 14 and 35 (inpatient); change in 24 h average ambulatory heart rate from baseline to days 4, 15 and 36; proportion of participants whose 24 h SBP and DBP increased by <5, 5-9, 10-14, 15-19, and >20 mm Hg compared with baseline; PK parameters of BIIB074 following a single oral dose in healthy female participants, and following repeated oral doses given twice daily to healthy male and female participants; PK/pharmacodynamic (PD) analyses to examine the correlation between ABP and plasma levels and/or metrics of the systemic exposure of BIIB074.\nABPM data were analyzed using a repeated measures mixed effects model, whereby fixed effects were treatment, day, treatment*day, period, average baseline*day, period adjusted baseline*day, sex and treatment*sex; random effect was subject; and repeated effect was day. All summary statistics were carried out using SAS 8.02 for UNIX running under the Harmonisation of Analysis and Reporting Program (HARP) environment. PK parameters were calculated by standard non-compartmental analysis according to working practices and using Win Nonlin Pro v. 5.2.\nThe safety population was the primary analysis population for this study and included all participants who received one or more doses of BIIB074. The PK population was defined as participants in the safety population for whom a PK sample was obtained and analyzed."}, "[6]": {"test": "Free fraction of Example 1 in plasma", "assay_type": "in vitro ADME", "conditions": "human"}, "[7]": {"test": "Phase 1 study of effect of UGT inhibition by valproic acid on PK of BIIB074", "assay_type": "in vivo, human", "conditions": "for AUC(0-inf) / AUC(0-t) / Cmax: human, plasma, oral; for AUC(0-inf): read-out: AUCinf, Geo LS mean; for AUC(0-t): read-out: AUClast, Geo LS mean; for Cmax: read-out: Cmax, Geo LS mean", "description": "In clinical practice BIIB074 may be coadministered with UGT inhibitors, which could potentially increase exposure to BIIB074 by reducing the extent of BIIB074 metabolism by UGTs. Valproic acid, which has long been used as a medication to treat seizures and bipolar disorder, is a non specific inhibitor of UGTs and has been used as a probe to determine the effect of UGT inhibition on the PK of compounds that are metabolized by multiple UGTs. Herein, the potential of the UGT inhibitor valproic acid to alter the single dose PK, safety, and tolerability of BIIB074 was assessed to inform the feasibility and safety of coadministration of BIIB074 with compounds known to inhibit UGTs.\n• To evaluate the effect of multiple doses of the uridine diphosphate glucuronosyltransferase (UGT) inhibitor valproic acid on the single dose PK of BIIB074. • The primary endpoints that relate to this objective are: maximum observed concentration (Cmax), area under the curve (AUC) from time 0 to infinity (AUCinf), and AUC from time 0 to time of the last measurable concentration (AUClast) for BIIB074. • Other endpoints that relate to the primary objective are the time to reach Cmax (Tmax), time of the last measurable concentration (Tlast), t1/2 apparent clearance (CL/F), and apparent volume of distribution (V/F) for BIIB074."}, "[8]": {"conditions": "BIIB074 with valproic acid/BIIB074 alone"}, "[9]": {"conditions": "single dose BIIB074 with valproic acid"}}, "note": "Like-named read-outs stand apart in the source and are kept apart here.", "data": [{"smiles": "Cl.NC(=O)[C@@H]1CC[C@H](c2ccc(OCc3ccccc3F)cc2)N1", "note": "[Example 1, (5R)-5-(4-{[(2-Fluorophenyl)methyl]oxy}phenyl)-L-prolinamide hydrochloride]", "values": [{"measurement": "Non-inferiority to placebo, inpatient ABPM", "setting": "[1]", "result": "non-inferiority of BIIB074 compared with placebo was demonstrated"}, {"measurement": "Clinical efficacy", "setting": "[2]", "result": "EFFICACY OBSERVED in TN"}, {"measurement": "Reversal of mechanical hypersensitivity", "setting": "[3]; 5 mg/kg oral", "result": "fully reversed"}, {"measurement": "Human scaled equivalent total plasma exposure where robust efficacy was observed", "setting": "[3]; rat, in vivo", "result": 786, "unit": "ng/mL"}, {"measurement": "Main route of metabolism", "setting": "[4]", "result": "mainly metabolized by uridine diphosphate glucuronosyltransferases (UGTs)"}, {"measurement": "AUCex", "setting": "[5]; 400 mg single dose, female", "result": 15.2, "unit": "%"}, {"measurement": "tmax", "setting": "[5]; Day 1, 300 mg bid, female", "result": 1.50, "unit": "h"}, {"measurement": "tmax", "setting": "[5]; Day 14, 300 mg bid, female", "result": 1.50, "unit": "h"}, {"measurement": "AUC(0-12)", "setting": "[5]; Day 14, 400 mg bid, male", "result": "32100 (23.5) ng · h/mL"}, {"measurement": "Cmax", "setting": "[5]; Day 35, 300 mg bid, female", "result": "3990 (26.6) ng/mL"}, {"measurement": "AUC(0-24) in males (400 mg bid) higher than in females (300 mg bid)", "setting": "[5]; days 14 and 35, on average", "result": 10, "unit": "%"}, {"measurement": "Cmax in males (400 mg bid) higher than in females (300 mg bid)", "setting": "[5]; days 14 and 35, on average", "result": "11-19%"}, {"measurement": "Dose-normalized AUC lower in male than in female participants", "setting": "[5]; repeat dosing, days 14 and 35", "result": "17-18%"}, {"measurement": "Dose-normalized Cmax lower in male than in female participants", "setting": "[5]; repeat dosing, days 14 and 35", "result": "11-17%"}, {"measurement": "fraction unbound", "setting": "[6]; listed as 150 mg tid", "result": 0.032}, {"measurement": "fraction unbound", "setting": "[6]; listed as 200 mg bid", "result": 0.036}, {"measurement": "fraction unbound", "setting": "[6]; listed as 250 mg tid", "result": 0.032}, {"measurement": "fraction unbound", "setting": "[6]; listed as 350 mg bid", "result": 0.032}, {"measurement": "AUCinf, Geo LS mean ratio", "setting": "[7]; [8]", "result": 1.68}, {"measurement": "AUClast, Geo LS mean ratio", "setting": "[7]; [8]", "result": 1.69}, {"measurement": "Cmax, Geo LS mean ratio", "setting": "[7]; [8]", "result": 0.97}, {"measurement": "AUC(0-inf)", "setting": "[7]; single dose BIIB074 alone", "result": 16, "unit": "µg·h/mL"}, {"measurement": "AUC(0-t)", "setting": "[7]; single dose BIIB074 alone", "result": 15.7, "unit": "µg·h/mL"}, {"measurement": "Cmax", "setting": "[7]; single dose BIIB074 alone", "result": 1.31, "unit": "µg/mL"}, {"measurement": "AUC(0-inf)", "setting": "[7]; [9]", "result": 26.9, "unit": "µg·h/mL"}, {"measurement": "AUC(0-t)", "setting": "[7]; [9]", "result": 26.5, "unit": "µg·h/mL"}, {"measurement": "Cmax", "setting": "[7]; [9]", "result": 1.26, "unit": "µg/mL"}, {"measurement": "Elimination with valproic acid", "setting": "[7]; in vivo", "result": "prolonged"}, {"measurement": "Exposure (AUC) with valproic acid compared to BIIB074 alone", "setting": "[7]; in vivo", "result": "increased"}, {"measurement": "Exposure based on AUCinf and AUClast higher with valproic acid than alone", "setting": "[7]; in vivo", "result": "~70", "unit": "%"}, {"measurement": "Change in Cmax with valproic acid compared to BIIB074 alone", "setting": "[7]; in vivo, listed as BIIB074, hydrochloride", "result": "no change"}, {"measurement": "Plasma exposure higher with valproic acid at steady state than alone", "setting": "[7]; single dose", "result": "approximately 1.7 fold"}]}]}
